Experimental data published in patent US4175125A, “Method for treating methicillin resistant staphylococcus aureus” (Eli Lilly and Company, priority 1978, dated 1979).
Values after ≈ are worked out from the molar mass of the structure shown.

Key:
[1] = test system: Staphylococcus aureus cultures; experiment: Agar dilution susceptibility test, phenylthioacetyl cephalosporins vs methicillin resistant S. aureus (Example 9); assay type: cell-based; conditions: Staphylococcus aureus
Source text: This example compares the antibiotic activities of three known compounds, methicillin, cephalothin, and cephaloridine, with three compounds from the above examples, in terms of minimum inhibitory concentration (MIC) values in microgram/milliliter units against various isolates of Staphylococcus aureus cultures. The culture numbers and the procedures used to obtain the reported data are disclosed by W. E. Wick and D. A. Preston in their article "Heterogeneous Methicillin-Resistant Staphylococcus Aureus" which appeared in Progress in Antimicrobial And Anticancer Chemotherapy, Proceedings of the 6th International Congress of Chemotherapy, Volume, 1, U. of Tokyo Press, Tokyo, (1970). In these agardilution susceptibility tests, the inocula were diluted to 10^3 bacteria per spot. Cultures 3055 (benzylpenicillin sensitive) and H232 (benzylpenicillin-resistant) are controls. The remaining cultures are methicillin-resistant, and, except for 3136, are clinical isolates. Culture 3136 is a 4th transfer laboratory selected mutant.

[2] = test system: Staphylococcus aureus cultures; experiment: Broth dilution MIC in trypticase soy broth, low and high NaCl (Example 10); assay type: cell-based; conditions: for MIC: Staphylococcus aureus, TSB
Experimental: This example compares the antibiotic activities of methicillin, cephalothin and cephaloridine with the compounds of Examples 1, 2 and 3, in broth dilution tests. The MIC values, in μg/ml., are against the same Staphylococcus aureus cultures described in Example 9, except that in this example the cultures were grown in trypticase soy broth (TSB). Growing the cultures in two broth cultures, one having a low (0.5 percent) sodium chloride content and one having a high (5.0 percent) sodium chloride content is said to assist in identifying the methicillin-resistant cultures from those which are not methicillin-resistant. […] See Chabbert, Y. A., 1967 Postgrad. Med. J., 43 (suppl); 40-46. One expects that similar changes in MIC values for this type of culture to other β-lactam antibiotics, e.g., various penicillins and cephalosporins, to have similar implications. […] That is, methicillin-resistant S.aureus cultures are susceptible to the cephalosporin antibiotics used in this invention.

[3] = culture 3130, table part marked b
[4] = culture 3130, table part marked c
[5] = culture 3131, table part marked b
[6] = culture 3131, table part marked c
[7] = culture 3134, table part marked b
[8] = culture 3134, table part marked c
[9] = culture 3135, table part marked b
[10] = culture 3135, table part marked c
[11] = culture 3136, table part marked b
[12] = culture 3136, table part marked c
[13] = culture 3137, table part marked b
[14] = culture 3137, table part marked c
[15] = culture 3138, table part marked b
[16] = culture 3138, table part marked c
[17] = culture 3139, table part marked b
[18] = culture 3139, table part marked c

Q: How did the MIC ([1]; culture 3055 (control, benzylpenicillin sensitive), table part marked b) turn out when `CC(=O)OCC1=C(C(=O)O)N2C(=O)[C@@H](NC(=O)Cc3cccs3)[C@H]2SC1` [Cephalothin, cephalothin, reference compound] was run?
A: < 0.25 µg/mL

Q: What about the MIC ([1]; culture 3055 (control, benzylpenicillin sensitive), table part marked c) of the same molecule?
A: < 0.25 µg/mL

Q: What about the MIC [1, 3] of the same molecule?
A: 8 µg/mL (≈ 20.2 µM)

Q: What about the MIC [1, 4] of the same molecule?
A: 64 µg/mL (≈ 161 µM)

Q: And the MIC [1, 5]?
A: 1 µg/mL (≈ 2.52 µM)

Q: What about the MIC [1, 6] of the same molecule?
A: 32 µg/mL (≈ 80.7 µM)

Q: What about the MIC ([1]; culture 3132, table part marked b) of the same molecule?
A: 2 µg/mL (≈ 5.04 µM)

Q: What about the MIC ([1]; culture 3132, table part marked c) of the same molecule?
A: 16 µg/mL (≈ 40.4 µM)

Q: What about the MIC ([1]; culture 3133, table part marked b) of the same molecule?
A: 2 µg/mL (≈ 5.04 µM)

Q: And the MIC ([1]; culture 3133, table part marked c)?
A: 64 µg/mL (≈ 161 µM)

Q: And the MIC [1, 7]?
A: 8 µg/mL (≈ 20.2 µM)

Q: And the MIC [1, 8]?
A: 64 µg/mL (≈ 161 µM)

Q: And the MIC [1, 9]?
A: 2 µg/mL (≈ 5.04 µM)

Q: And the MIC [1, 10]?
A: 32 µg/mL (≈ 80.7 µM)

Q: And the MIC [1, 11]?
A: 2 µg/mL (≈ 5.04 µM)

Q: What about the MIC [1, 12] of the same molecule?
A: 32 µg/mL (≈ 80.7 µM)

Q: And the MIC [1, 13]?
A: 64 µg/mL (≈ 161 µM)

Q: And the MIC [1, 14]?
A: 128 µg/mL (≈ 323 µM)

Q: What about the MIC [1, 15] of the same molecule?
A: 8 µg/mL (≈ 20.2 µM)

Q: What about the MIC [1, 16] of the same molecule?
A: 64 µg/mL (≈ 161 µM)

Q: And the MIC [1, 17]?
A: 1 µg/mL (≈ 2.52 µM)

Q: What about the MIC [1, 18] of the same molecule?
A: 32 µg/mL (≈ 80.7 µM)

Q: And the MIC ([1]; culture (Seattle) 966, table part marked b)?
A: 1 µg/mL (≈ 2.52 µM)

Q: And the MIC ([1]; culture (Seattle) 966, table part marked c)?
A: 32 µg/mL (≈ 80.7 µM)

Q: What about the MIC ([1]; culture H232 (control, benzylpenicillin-resistant), table part marked b) of the same molecule?
A: < 0.25 µg/mL

Q: And the MIC ([1]; culture H232 (control, benzylpenicillin-resistant), table part marked c)?
A: < 0.25 µg/mL

Q: What about the MIC ([1]; culture Kavarmark 1138501, table part marked b) of the same molecule?
A: 2 µg/mL (≈ 5.04 µM)

Q: And the MIC ([1]; culture Kavarmark 1138501, table part marked c)?
A: 32 µg/mL (≈ 80.7 µM)

Q: What about the MIC ([1]; culture S61, table part marked b) of the same molecule?
A: 2 µg/mL (≈ 5.04 µM)

Q: What about the MIC ([1]; culture S61, table part marked c) of the same molecule?
A: 64 µg/mL (≈ 161 µM)

Q: And the “difference in MIC values in low versus high salt TSB cultures” value ([2]; 0.5 percent vs 5.0 percent NaCl, methicillin-resistant S. aureus)?
A: fairly wide difference (increase in MIC value from 2 to 64)

Q: And the MIC ([2]; culture 3055 (control), table part marked b)?
A: 0.5 µg/mL (≈ 1.26 µM)

Q: And the MIC ([2]; culture 3055 (control), table part marked c)?
A: 0.5 µg/mL (≈ 1.26 µM)

Q: And the MIC [2, 3]?
A: 8 µg/mL (≈ 20.2 µM)

Q: And the MIC [2, 4]?
A: 64 µg/mL (≈ 161 µM)

Q: And the MIC [2, 5]?
A: 2 µg/mL (≈ 5.04 µM)

Q: What about the MIC [2, 6] of the same molecule?
A: 64 µg/mL (≈ 161 µM)

Q: What about the MIC ([2]; culture 3132 (first column so headed), table part marked b) of the same molecule?
A: 2 µg/mL (≈ 5.04 µM)

Q: What about the MIC ([2]; culture 3132 (first column so headed), table part marked c) of the same molecule?
A: 64 µg/mL (≈ 161 µM)

Q: What about the MIC ([2]; culture 3132 (second column so headed), table part marked b) of the same molecule?
A: 2 µg/mL (≈ 5.04 µM)

Q: And the MIC ([2]; culture 3132 (second column so headed), table part marked c)?
A: 64 µg/mL (≈ 161 µM)

Q: What about the MIC [2, 7] of the same molecule?
A: 32 µg/mL (≈ 80.7 µM)

Q: And the MIC [2, 8]?
A: 64 µg/mL (≈ 161 µM)

Q: And the MIC [2, 9]?
A: 2 µg/mL (≈ 5.04 µM)

Q: And the MIC [2, 10]?
A: 64 µg/mL (≈ 161 µM)

Q: And the MIC [2, 11]?
A: 2 µg/mL (≈ 5.04 µM)

Q: And the MIC [2, 12]?
A: 64 µg/mL (≈ 161 µM)

Q: What about the MIC [2, 13] of the same molecule?
A: 64 µg/mL (≈ 161 µM)

Q: And the MIC [2, 14]?
A: 128 µg/mL (≈ 323 µM)

Q: And the MIC [2, 15]?
A: 32 µg/mL (≈ 80.7 µM)

Q: What about the MIC [2, 16] of the same molecule?
A: 64 µg/mL (≈ 161 µM)

Q: And the MIC [2, 17]?
A: 4 µg/mL (≈ 10.1 µM)

Q: And the MIC [2, 18]?
A: 32 µg/mL (≈ 80.7 µM)
